{"source": "patent US20250195521A1", "about": "(Revolution Medicines, Inc., priority 2020, published 2025)", "key": {"[1]": {"molecular_target": "KRAS G13C binding to BRAF RBD (Homo sapiens (Human), UniProt P01116+P62937, G13C)", "sequence (P01116 other isoform, or with tags, fused parts or gaps G13C)": "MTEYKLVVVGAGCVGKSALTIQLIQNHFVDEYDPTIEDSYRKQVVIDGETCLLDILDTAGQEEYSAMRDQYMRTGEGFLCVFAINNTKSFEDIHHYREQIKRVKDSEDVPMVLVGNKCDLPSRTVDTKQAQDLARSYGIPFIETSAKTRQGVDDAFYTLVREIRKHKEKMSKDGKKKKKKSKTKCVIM", "sequence (P62937 whole entry, the tested form may be a part)": "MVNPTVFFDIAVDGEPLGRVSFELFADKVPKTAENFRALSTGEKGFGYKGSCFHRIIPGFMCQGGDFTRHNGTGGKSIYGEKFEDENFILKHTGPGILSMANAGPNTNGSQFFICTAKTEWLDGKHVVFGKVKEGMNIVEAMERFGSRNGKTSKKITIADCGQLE", "test": "Ras-Raf disruption/FRET/MOA assay, KRAS G13C", "format": "biochemical", "description": "Disruption of B-Raf Ras-binding Domain (BRAF^RBD) Interaction with K-Ras by Compounds of the Invention (also called a FRET assay or an MOA assay)\nNote—The following protocol describes a procedure for monitoring disruption of K-Ras G12C(GMP-PNP) binding to BRAF^RBD by a compound of the invention. This protocol may also be executed substituting other Ras proteins or nucleotides.\n(§1) The purpose of this biochemical assay was to measure the ability of test compounds to facilitate ternary complex formation between a nucleotide-loaded K-Ras isoform and Cyclophilin A; the resulting ternary complex disrupts binding to a BRAF^RBD construct, inhibiting K-Ras signaling through a RAF effector. Data is reported as IC50 values.\n(§2) In assay buffer containing 25 mM HEPES pH 7.3, 0.002% Tween20, 0.1% BSA, 100 mM NaCl and 5 mM MgCl2, tagless Cyclophilin A, His6-K-Ras-GMPPNP, and GST-BRAF^RBD were combined in a 384-well assay plate at final concentrations of 25 μM, 12.5 nM and 50 nM, respectively. Compound was present in plate wells as a 10-point 3-fold dilution series starting at a final concentration of 30 μM. After incubation at 25° C. for 3 hours, a mixture of Anti-His Eu—W1024 and anti-GST allophycocyanin was then added to assay sample wells at final concentrations of 10 nM and 50 nM, respectively, and the reaction incubated for an additional 1.5 hours. […] Compounds that facilitate disruption of a K-Ras: RAF complex were identified as those eliciting a decrease in the TR-FRET ratio relative to DMSO control wells."}, "[2]": {"molecular_target": "NRAS G12C binding to BRAF RBD (Homo sapiens (Human), UniProt P01111+P62937, G12C)", "sequence (P01111 whole entry G12C)": "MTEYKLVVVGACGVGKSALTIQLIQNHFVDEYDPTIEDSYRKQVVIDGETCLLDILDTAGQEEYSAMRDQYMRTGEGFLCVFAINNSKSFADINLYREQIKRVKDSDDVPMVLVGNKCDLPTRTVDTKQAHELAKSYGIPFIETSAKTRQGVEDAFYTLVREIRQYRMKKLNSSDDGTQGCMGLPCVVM", "sequence (P62937 whole entry)": "as the sequence (P62937 whole entry, the tested form may be a part) above", "test": "Ras-Raf disruption/FRET/MOA assay, NRAS G12C", "format": "biochemical", "summary_of_the_method": "(§3)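 Cpd 10-pt 3-fold dilution, top 30 μM final; Ras/CypA/BRAF RBD mix 3 h, 25° C. Add anti-His Eu-W1024 10 nM + anti-GST APC 50 nM final, 1.5 h. Readout TR-FRET ratio decrease vs DMSO → IC50.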"}, "[3]": {"system": "K-Ras G12C (NCI-H358 cells)", "test": "Potency assay: pERK in NCI-H358 cells", "format": "cell-based, human", "conditions": "Homo sapiens; NCI-H358 cells, 4 hours; read-out: pERK EC50 (H358 KRAS G12C)", "summary_of_the_method": "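Cells plated the day before were exposed for 4 h at 37° C, 5% CO2 to a 10-point, 3-fold DMSO dilution series (10 mM top stock), in duplicate. Phospho-ERK was read by AlphaLISA SureFire Ultra or by In-Cell Western with DRAQ5 DNA stain, and IC50 came from a 4-parameter sigmoidal fit.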"}, "NCI-H358 (K-Ras G12C)": {"system": "NCI-H358 (K-Ras G12C)", "test": "CellTiter-Glo cell viability assay, NCI-H358", "format": "cell-based, human", "conditions": "Homo sapiens, NCI-H358, 120 h, 5-day treatment; read-out: H358 Cell Viability assay data (K-Ras G12C, IC50)", "summary_of_the_method": "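Viability is measured as ATP-dependent luminescence (CellTiter-Glo) five days into compound treatment. Responses are normalized to vehicle (DMSO) wells and fitted by four-parameter logistic regression.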"}, "[4]": {"molecular_target": "K-Ras G12C(GMP-PNP) binding to BRAF RBD (Homo sapiens (Human), UniProt P01116+P62937, G12C)", "sequence (P01116 other isoform, or with tags, fused parts or gaps G12C)": "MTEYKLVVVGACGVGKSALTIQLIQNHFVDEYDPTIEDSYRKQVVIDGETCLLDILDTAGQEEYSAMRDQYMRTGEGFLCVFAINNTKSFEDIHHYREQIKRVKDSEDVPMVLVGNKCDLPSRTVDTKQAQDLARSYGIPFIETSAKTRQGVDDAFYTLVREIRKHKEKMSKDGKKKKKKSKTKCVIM", "sequence (P62937 whole entry)": "as the sequence (P62937 whole entry, the tested form may be a part) above", "test": "Disruption of BRAF RBD interaction with K-Ras (FRET / MOA assay), K-Ras G12C", "format": "biochemical", "conditions": "read-out: KRAS G12C FRET IC50", "summary_of_the_method": "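Compounds promote ternary complex of nucleotide-loaded Ras (here K-Ras G12C·GMP-PNP; other Ras mutants substituted) with cyclophilin A, disrupting BRAF RBD binding. 10-point 3-fold series from 30 μM final, 3 h at 25 °C, then anti-His Eu (10 nM) and anti-GST APC (50 nM) for 1.5 h. TR-FRET ratio decrease versus DMSO gave IC50.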"}, "[5]": {"molecular_target": "KRAS G12S binding to BRAF RBD (Homo sapiens (Human), UniProt P01116+P62937, G12S)", "test": "Ras-Raf disruption/FRET/MOA assay, KRAS G12S", "format": "biochemical", "summary_of_the_method": "as §3"}, "[6]": {"molecular_target": "KRAS WT binding to BRAF RBD (Homo sapiens (Human), UniProt P01116+P62937)", "sequence (P01116 other isoform, or with tags, fused parts or gaps)": "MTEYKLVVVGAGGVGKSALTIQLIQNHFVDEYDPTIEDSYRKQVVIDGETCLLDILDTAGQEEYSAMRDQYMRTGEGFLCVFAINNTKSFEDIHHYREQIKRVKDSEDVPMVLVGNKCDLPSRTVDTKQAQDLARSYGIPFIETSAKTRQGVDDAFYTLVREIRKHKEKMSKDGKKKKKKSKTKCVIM", "sequence (P62937 whole entry)": "as the sequence (P62937 whole entry, the tested form may be a part) above", "test": "Ras-Raf disruption/FRET/MOA assay, KRAS WT", "format": "biochemical", "summary_of_the_method": "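Compounds (top 30 μM, 3-fold, 10 points) promote Cyclophilin A (25 μM) ternary complex with His6-Ras-GMPPNP (12.5 nM), disrupting GST-BRAF RBD (50 nM) binding; 3 h, 25°C, 25 mM HEPES pH 7.3, 100 mM NaCl, 5 mM MgCl2. Detection reagents (Eu anti-His 10 nM, APC anti-GST 50 nM) added for 1.5 h; IC50 reported.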"}, "AsPC-1 (K-Ras G12D)": {"system": "AsPC-1 (K-Ras G12D)", "test": "Potency assay: pERK", "format": "cell-based, human", "conditions": "Homo sapiens, ASPC1; AsPC-1 KRAS G12D; read-out: pERK EC50", "summary_of_the_method": "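pERK decrease measured after 4 h compound treatment at 37 °C (10 three-fold dilutions, duplicate wells), by either fixed-cell In-Cell Western with DRAQ5 counterstain or AlphaLISA on lysates. Signal fitted against log concentration with a four-parameter model to give IC50.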"}, "KRAS G13D": {"molecular_target": "KRAS G13D (Homo sapiens (Human), UniProt P01116+P62937, G13D)", "sequence (P01116 other isoform, or with tags, fused parts or gaps G13D)": "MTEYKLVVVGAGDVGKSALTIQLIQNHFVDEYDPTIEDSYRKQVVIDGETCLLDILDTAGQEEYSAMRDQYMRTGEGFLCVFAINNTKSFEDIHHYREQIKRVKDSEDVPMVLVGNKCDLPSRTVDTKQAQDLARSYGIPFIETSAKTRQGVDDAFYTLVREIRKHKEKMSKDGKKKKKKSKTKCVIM", "sequence (P62937 whole entry)": "as the sequence (P62937 whole entry, the tested form may be a part) above", "test": "Ras-Raf disruption/FRET/MOA assay, KRAS G13D", "format": "biochemical", "summary_of_the_method": "(§4)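 His6-Ras-GMPPNP 12.5 nM + GST-BRAF^RBD 50 nM + CypA 25 μM; HEPES pH 7.3, 5 mM MgCl2, 0.1% BSA, 0.002% Tween20. Cpd 10-pt 3-fold from 30 μM final, 3 h 25° C. Eu/APC antibody detection 1.5 h; TR-FRET ratio drop vs DMSO → IC50.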"}, "KRAS G12S": {"molecular_target": "KRAS G12S (Homo sapiens (Human), UniProt P01116+P62937, G12S)", "test": "Ras-Raf disruption/FRET/MOA assay, KRAS G12S", "format": "biochemical", "summary_of_the_method": "as §4"}, "KRAS G13C": {"molecular_target": "KRAS G13C (Homo sapiens (Human), UniProt P01116+P62937, G13C)", "sequence (P01116 other isoform, or with tags, fused parts or gaps G13C)": "as the sequence (P01116 other isoform, or with tags, fused parts or gaps G13C) above", "sequence (P62937 whole entry)": "as the sequence (P62937 whole entry, the tested form may be a part) above", "test": "Ras-Raf disruption/FRET/MOA assay, KRAS G13C", "format": "biochemical", "summary_of_the_method": "as §4"}, "KRAS G12V": {"molecular_target": "KRAS G12V (Homo sapiens (Human), UniProt P01116+P62937, G12V)", "sequence (P01116 other isoform, or with tags, fused parts or gaps G12V)": "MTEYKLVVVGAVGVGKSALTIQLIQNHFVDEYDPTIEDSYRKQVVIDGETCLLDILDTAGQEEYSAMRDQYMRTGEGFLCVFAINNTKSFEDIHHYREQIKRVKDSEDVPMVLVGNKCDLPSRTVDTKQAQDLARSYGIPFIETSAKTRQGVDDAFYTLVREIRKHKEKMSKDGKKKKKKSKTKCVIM", "sequence (P62937 whole entry)": "as the sequence (P62937 whole entry, the tested form may be a part) above", "test": "Ras-Raf disruption/FRET/MOA assay, KRAS G12V", "format": "biochemical", "summary_of_the_method": "as §4"}, "KRAS G12D": {"molecular_target": "KRAS G12D (Homo sapiens (Human), UniProt P01116+P62937, G12D)", "sequence (P01116 other isoform, or with tags, fused parts or gaps G12D)": "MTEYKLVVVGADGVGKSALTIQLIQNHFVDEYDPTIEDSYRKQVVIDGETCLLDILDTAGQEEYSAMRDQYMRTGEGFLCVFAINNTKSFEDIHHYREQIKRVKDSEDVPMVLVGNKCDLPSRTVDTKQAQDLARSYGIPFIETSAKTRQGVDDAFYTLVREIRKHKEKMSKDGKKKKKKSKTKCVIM", "sequence (P62937 whole entry)": "as the sequence (P62937 whole entry, the tested form may be a part) above", "test": "Ras-Raf disruption/FRET/MOA assay, KRAS G12D", "format": "biochemical", "summary_of_the_method": "as §4"}, "KRAS WT": {"molecular_target": "KRAS WT (Homo sapiens (Human), UniProt P01116+P62937)", "sequence (P01116 other isoform, or with tags, fused parts or gaps)": "as the sequence (P01116 other isoform, or with tags, fused parts or gaps) above", "sequence (P62937 whole entry)": "as the sequence (P62937 whole entry, the tested form may be a part) above", "test": "Ras-Raf disruption/FRET/MOA assay, KRAS WT", "format": "biochemical", "summary_of_the_method": "as §4"}, "KRAS G12C": {"molecular_target": "KRAS G12C (Homo sapiens (Human), UniProt P01116+P62937, G12C)", "sequence (P01116-2 other isoform, or with tags, fused parts or gaps G12C)": "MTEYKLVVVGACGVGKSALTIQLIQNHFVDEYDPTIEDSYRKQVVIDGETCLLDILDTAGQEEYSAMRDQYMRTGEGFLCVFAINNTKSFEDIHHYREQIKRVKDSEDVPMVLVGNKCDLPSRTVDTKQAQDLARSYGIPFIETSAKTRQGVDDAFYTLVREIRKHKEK", "sequence (P62937 whole entry)": "as the sequence (P62937 whole entry, the tested form may be a part) above", "test": "Ras-Raf disruption/FRET/MOA assay, KRAS G12C", "format": "biochemical", "summary_of_the_method": "as §4"}, "KRAS Q61H": {"molecular_target": "KRAS Q61H (Homo sapiens (Human), UniProt P01116+P62937, Q61H)", "sequence (P01116 other isoform, or with tags, fused parts or gaps Q61H)": "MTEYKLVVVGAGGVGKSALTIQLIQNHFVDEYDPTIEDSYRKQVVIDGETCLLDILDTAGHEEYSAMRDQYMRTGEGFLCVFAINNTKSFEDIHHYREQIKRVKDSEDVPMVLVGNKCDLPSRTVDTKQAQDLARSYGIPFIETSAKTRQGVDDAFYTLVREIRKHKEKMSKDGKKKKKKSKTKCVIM", "sequence (P62937 whole entry, the tested form may be a part)": "as the sequence (P62937 whole entry, the tested form may be a part) above", "test": "Ras-Raf disruption/FRET/MOA assay, KRAS Q61H", "format": "biochemical", "description": "(§5) Disruption of B-Raf Ras-Binding Domain (BRAF^RBD) Interaction with K-Ras by Compounds of the Invention (Also Called a FRET Assay or an MOA Assay)\n(§6) Note—The following protocol describes a procedure for monitoring disruption of K-Ras G12C (GMP-PNP) binding to BRAF^RBD by a compound of the invention. This protocol may also be executed substituting other Ras proteins or nucleotides, such as K-Ras G12D and K-Ras G13D.\nas §1\nas §2, with “12.5 nM,” for “12.5 nM”, “of anti-His” for “of Anti-His”"}, "NRAS G12C": {"molecular_target": "NRAS G12C (Homo sapiens (Human), UniProt P01111+P62937, G12C)", "sequence (P01111 whole entry G12C)": "as the sequence (P01111 whole entry G12C) above", "sequence (P62937 whole entry)": "as the sequence (P62937 whole entry, the tested form may be a part) above", "test": "Ras-Raf disruption/FRET/MOA assay, NRAS G12C", "format": "biochemical", "summary_of_the_method": "as §4"}, "NRAS WT": {"molecular_target": "NRAS WT (Homo sapiens (Human), UniProt P01111+P62937)", "sequence (P01111 whole entry)": "as the sequence (P01111 whole entry G12C) above, with C12G counted along it", "sequence (P62937 whole entry)": "as the sequence (P62937 whole entry, the tested form may be a part) above", "test": "Ras-Raf disruption/FRET/MOA assay, NRAS WT", "format": "biochemical", "description": "as §5, §6, §1\nas §2, with “12.5 nM,” for “12.5 nM”, “of anti-His” for “of Anti-His”"}, "NRAS Q61K": {"molecular_target": "NRAS Q61K (Homo sapiens (Human), UniProt P01111+P62937, Q61K)", "test": "Ras-Raf disruption/FRET/MOA assay, NRAS Q61K", "format": "biochemical", "description": "as §5, §6, §1\nas §2, with “12.5 nM,” for “12.5 nM”, “of anti-His” for “of Anti-His”"}, "NRAS Q61R": {"molecular_target": "NRAS Q61R (Homo sapiens (Human), UniProt P01111+P62937, Q61R)", "sequence (P01111 whole entry Q61R)": "as the sequence (P01111 whole entry G12C) above, with C12G, Q61R counted along it", "sequence (P62937 whole entry)": "as the sequence (P62937 whole entry, the tested form may be a part) above", "test": "Ras-Raf disruption/FRET/MOA assay, NRAS Q61R", "format": "biochemical", "description": "as §5, §6, §1\nas §2, with “12.5 nM,” for “12.5 nM”, “of anti-His” for “of Anti-His”"}}, "data": [{"compound": "CCn1c(-c2cnccc2COC)c2c3cc(ccc31)-c1cc(O)cc(c1)C[C@H](NC(=O)[C@H](C(C)C)N(C)C(=O)[C@H]1CCN(C(=O)C#CCN(C)C)C1)C(=O)N1CCC[C@H](N1)C(=O)OCC(C)(C)C2", "note": "[Compound A107]", "values": [{"measurement": "IC50", "setting": "[1]", "value": "< 10", "unit": "nM"}, {"measurement": "IC50", "setting": "[2]", "value": "< 10", "unit": "nM"}]}, {"compound": "CCn1c(-c2cccnc2[C@H](C)OC)c2c3cc(ccc31)-c1csc(n1)C[C@H](NC(=O)[C@H](C(C)C)N(C)C(=O)N1CC(C)(OC)C1)C(=O)N1CCC[C@H](N1)C(=O)OCC(C)(C)C2", "note": "[Compound A299]", "values": [{"measurement": "EC50", "setting": "[3]", "value": "< 5", "unit": "µM"}, {"measurement": "IC50", "setting": "NCI-H358 (K-Ras G12C)", "value": "< 10", "unit": "nM"}, {"measurement": "IC50", "setting": "[4]", "value": "< 10", "unit": "nM"}, {"measurement": "IC50", "setting": "[1]", "value": "< 10", "unit": "nM"}, {"measurement": "IC50", "setting": "[5]", "value": "10 to 100", "unit": "nM"}, {"measurement": "IC50", "setting": "[6]", "value": "10 to 100", "unit": "nM"}]}, {"compound": "CCn1c(-c2cccnc2[C@H](C)OC)c2c3cc(ccc31)-c1cc(O)cc(c1)C[C@H](NC(=O)[C@H](C(C)C)N(C)C(=O)[C@@]1(C)CCCN1C(=O)[C@H]1CN1)C(=O)N1CCC[C@H](N1)C(=O)OCC(C)(C)C2", "note": "[Example 239]", "values": [{"measurement": "EC50", "setting": "AsPC-1 (K-Ras G12D)", "value": "< 5", "unit": "µM"}, {"measurement": "IC50", "setting": "KRAS G13D", "value": "10 to 100", "unit": "nM"}, {"measurement": "IC50", "setting": "KRAS G12S", "value": "10 to 100", "unit": "nM"}, {"measurement": "IC50", "setting": "KRAS G13C", "value": "10 to 100", "unit": "nM"}, {"measurement": "IC50", "setting": "KRAS G12V", "value": "10 to 100", "unit": "nM"}, {"measurement": "IC50", "setting": "KRAS G12D", "value": "100 to 1000", "unit": "nM"}, {"measurement": "IC50", "setting": "KRAS WT", "value": "10 to 100", "unit": "nM"}, {"measurement": "IC50", "setting": "KRAS G12C", "value": "10 to 100", "unit": "nM"}, {"measurement": "IC50", "setting": "KRAS Q61H", "value": "10 to 100", "unit": "nM"}, {"measurement": "IC50", "setting": "NRAS G12C", "value": "10 to 100", "unit": "nM"}, {"measurement": "IC50", "setting": "NRAS WT", "value": "10 to 100", "unit": "nM"}, {"measurement": "IC50", "setting": "NRAS Q61K", "value": "100 to 1000", "unit": "nM"}, {"measurement": "IC50", "setting": "NRAS Q61R", "value": "100 to 1000", "unit": "nM"}]}]}
